Source: US11485731B2, “Compounds and methods useful in the treatment of a PRMT5-mediated disorder” (ARGONAUT THERAPEUTICS LIMITED, priority 2017, dated 2022)
pIC50: −log10 of the molar value.

The compounds below were run against human PRMT5/MEP50 (Homo sapiens (Human), UniProt O14744) (assay: PRMT5 chemiluminescent assay). Conditions: human PRMT5/MEP50 expressed in HEK293 cells; biotinylated histone peptides; Histone H4 monomethyl R3 antibody; chemiluminescent readout.
Type: biochemical
How it was run: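 HEK293-expressed PRMT5/MEP50, diluted to 5 ng/µL in assay buffer, reacted 60 min with rotation on plate-bound biotinylated histone peptides. Product was detected with anti-histone H4 R3 monomethyl antibody (60 min), then HRP secondary (30 min) and chemiluminescent substrate. IC50 values came from the chemiluminescence signal.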

Sequence of human PRMT5/MEP50 (O14744 whole entry): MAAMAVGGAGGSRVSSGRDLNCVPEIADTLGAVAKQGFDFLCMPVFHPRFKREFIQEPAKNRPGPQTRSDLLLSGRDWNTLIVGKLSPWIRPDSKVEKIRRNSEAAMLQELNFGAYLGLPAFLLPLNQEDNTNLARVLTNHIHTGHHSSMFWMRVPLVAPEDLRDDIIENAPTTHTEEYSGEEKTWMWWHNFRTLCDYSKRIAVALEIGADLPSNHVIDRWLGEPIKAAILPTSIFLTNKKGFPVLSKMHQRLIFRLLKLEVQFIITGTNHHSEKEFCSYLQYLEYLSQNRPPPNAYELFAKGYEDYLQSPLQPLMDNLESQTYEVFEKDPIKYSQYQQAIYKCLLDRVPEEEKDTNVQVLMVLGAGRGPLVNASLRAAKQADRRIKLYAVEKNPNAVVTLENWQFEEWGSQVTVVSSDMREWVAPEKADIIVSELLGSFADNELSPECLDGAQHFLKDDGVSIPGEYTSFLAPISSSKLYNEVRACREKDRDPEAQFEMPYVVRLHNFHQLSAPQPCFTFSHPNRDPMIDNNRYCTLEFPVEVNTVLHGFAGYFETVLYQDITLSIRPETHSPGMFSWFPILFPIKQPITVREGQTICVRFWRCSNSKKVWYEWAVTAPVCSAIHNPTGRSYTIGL
Sequence of human PRMT5/MEP50 (Q9BQA1 whole entry partner): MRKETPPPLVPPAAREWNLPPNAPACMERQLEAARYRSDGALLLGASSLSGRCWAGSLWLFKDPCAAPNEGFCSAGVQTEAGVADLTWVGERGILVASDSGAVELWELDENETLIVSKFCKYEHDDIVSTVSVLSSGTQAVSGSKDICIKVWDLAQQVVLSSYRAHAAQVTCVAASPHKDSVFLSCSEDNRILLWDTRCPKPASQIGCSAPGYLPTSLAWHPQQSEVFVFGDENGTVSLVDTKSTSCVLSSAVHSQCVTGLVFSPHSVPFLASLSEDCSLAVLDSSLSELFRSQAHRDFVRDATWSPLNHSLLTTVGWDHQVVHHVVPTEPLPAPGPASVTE

Row | Structure (SMILES) | pIC50
1 | O=C(NC[C@H](O)CN1CCc2ccccc2C1)N1CCCOCC1 [Example 1BP, (S)-N-(3-(3,4-dihydroisoquinolin-2(1H)-yl)-2-hydroxypropyl)-1,4-oxazepane-4-carboxamide] | 5.14
2 | O=C(NC[C@H](O)CN1CCc2ccccc2C1)N1CCCC(c2ccccn2)C1 (stereo partly drawn) [Example 1BQ, N-((S)-3-(3,4-dihydroisoquinolin-2(1H)-yl)-2-hydroxypropyl)-3-(pyridin-2-yl)piperidine-1-carboxamide] | 7.32
3 | Cn1cc(C2CCCN(C(=O)NC[C@H](O)CN3CCc4ccccc4C3)C2)ccc1=O (stereo partly drawn) [Example 1BR, N-((S)-3-(3,4-dihydroisoquinolin-2(1H)-yl)-2-hydroxypropyl)-3-(1-methyl-6-oxo-1,6-dihydropyridin-3-yl)piperidine-1-carboxamide] | 6.31
4 | O=C(NC[C@H](O)CN1CCc2ccccc2C1)N1CCCC(c2cnccn2)C1 (stereo partly drawn) [Example 1BS, N-((S)-3-(3,4-dihydroisoquinolin-2(1H)-yl)-2-hydroxypropyl)-3-(pyrazin-2-yl)piperidine-1-carboxamide] | 6.63
5 | Cc1cc(C2CCCN(C(=O)NC[C@H](O)CN3CCc4ccccc4C3)C2)ccn1 (stereo partly drawn) [Example 1BT, N-((S)-3-(3,4-dihydroisoquinolin-2(1H)-yl)-2-hydroxypropyl)-3-(2-methylpyridin-4-yl)piperidine-1-carboxamide] | 6.90
6 | O=C(NC[C@H](O)CN1CCc2ccccc2C1)N1CCCC(c2ccc(F)cc2)C1 (stereo partly drawn) [Example 1BU, N-((S)-3-(3,4-dihydroisoquinolin-2(1H)-yl)-2-hydroxypropyl)-3-(4-fluorophenyl)piperidine-1-carboxamide] | 7.92
7 | O=C(NC[C@H](O)CN1CCc2ccccc2C1)N1CCCC(c2cccnc2)C1 (stereo partly drawn) [Example 1BV, N-((S)-3-(3,4-dihydroisoquinolin-2(1H)-yl)-2-hydroxypropyl)-3-(pyridin-3-yl)piperidine-1-carboxamide] | 7.24
8 | O=C(NC[C@H](O)CN1CCc2ccccc2C1)N1CCCC(N2CCOCC2)C1 (stereo partly drawn) [Example 1BW, N-((S)-3-(3,4-dihydroisoquinolin-2(1H)-yl)-2-hydroxypropyl)-3-morpholinopiperidine-1-carboxamide] | 5.54
9 | O=C(NC[C@H](O)CN1CCc2ccccc2C1)N1CCCC(N2CCSCC2)C1 (stereo partly drawn) [Example 1BX, N-((S)-3-(3,4-dihydroisoquinolin-2(1H)-yl)-2-hydroxypropyl)-3-thiomorpholinopiperidine-1-carboxamide] | 6.20
10 | CN1CCN(C2CCCN(C(=O)NC[C@H](O)CN3CCc4ccccc4C3)C2)CC1 (stereo partly drawn) [Example 1BY, N-((S)-3-(3,4-dihydroisoquinolin-2(1H)-yl)-2-hydroxypropyl)-3-(4-methylpiperazin-1-yl)piperidine-1-carboxamide] | 5.58
11 | O=C(NC[C@H](O)CN1CCc2ccccc2C1)N1CCCC(C2CCOCC2)C1 (stereo partly drawn) [Example 1BZ, N-((S)-3-(3,4-dihydroisoquinolin-2(1H)-yl)-2-hydroxypropyl)-3-(tetrahydro-2H-pyran-4-yl)piperidine-1-carboxamide] | 6.57
12 | O=C(NCC(O)CN1CCc2ccccc2C1)N1CCN(c2ccccc2)CC1 (stereo not shown) [Example 1C, N-[2-hydroxy-3-(1,2,3,4-tetrahydroisoquinolin-2-yl)propyl]-4-phenylpiperazine-1-carboxamide] | 5.91
13 | O=C(NC[C@H](O)CN1CCc2ccccc2C1)N1CCCC(C2CCSCC2)C1 (stereo partly drawn) [Example 1CA, N-((S)-3-(3,4-dihydroisoquinolin-2(1H)-yl)-2-hydroxypropyl)-3-(tetrahydro-2H-thiopyran-4-yl)piperidine-1-carboxamide] | 7.24
14 | O=C(NC[C@H](O)CN1CCc2ccccc2C1)N1CCCC(N2CCCSCC2)C1 (stereo partly drawn) [Example 1CB, N-((S)-3-(3,4-dihydroisoquinolin-2(1H)-yl)-2-hydroxypropyl)-3-(1,4-thiazepan-4-yl)piperidine-1-carboxamide] | 6.47
15 | O=C(NC[C@H](O)CN1CCc2ccccc2C1)N1CCCC(N2CCCOCC2)C1 (stereo partly drawn) [Example 1CC, N-((S)-3-(3,4-dihydroisoquinolin-2(1H)-yl)-2-hydroxypropyl)-3-(1,4-oxazepan-4-yl)piperidine-1-carboxamide] | 5.78
16 | O=C(NC[C@H](O)CN1CCc2ccccc2C1)N1CCC(N2CCOCC2)C1 (stereo partly drawn) [Example 1CD, N-((S)-3-(3,4-dihydroisoquinolin-2(1H)-yl)-2-hydroxypropyl)-3-morpholinopyrrolidine-1-carboxamide] | 4.91
17 | O=C(NC[C@H](O)CN1CCc2ccccc2C1)N1CCC(N2CCSCC2)C1 (stereo partly drawn) [Example 1CE, N-((S)-3-(3,4-dihydroisoquinolin-2(1H)-yl)-2-hydroxypropyl)-3-thiomorpholinopyrrolidine-1-carboxamide] | 5.51
18 | O=C(NC[C@H](O)CN1CCc2ccccc2C1)N1CCC(N2CCCSCC2)C1 (stereo partly drawn) [Example 1CF, N-((S)-3-(3,4-dihydroisoquinolin-2(1H)-yl)-2-hydroxypropyl)-3-(1,4-thiazepan-4-yl)pyrrolidine-1-carboxamide] | 6.42
19 | O=C(NC[C@H](O)CN1CCc2ccccc2C1)N1CCS(=O)(=O)C(c2ccccc2)C1 (stereo partly drawn) [Example 1CG, N-((S)-3-(3,4-dihydroisoquinolin-2(1H)-yl)-2-hydroxypropyl)-2-phenylthiomorpholine-4-carboxamide 1,1-dioxide] | 6.37

Row | Structure (SMILES) | pIC50
20 | O=C(NC[C@H](O)CN1CCc2ccccc2C1)N1CCCC(N2CCN(Cc3ccccc3)CC2)C1 (stereo partly drawn) [Example 1CH, 3-(4-benzylpiperazin-1-yl)-N-((S)-3-(3,4-dihydroisoquinolin-2(1H)-yl)-2-hydroxypropyl)piperidine-1-carboxamide] | 5.72
21 | O=C(NC[C@H](O)CN1CCc2ccccc2C1)N1CC[C@@H](c2ccccc2)C1 [Example 1CI, (S)-N-((S)-3-(3,4-dihydroisoquinolin-2(1H)-yl)-2-hydroxypropyl)-3-phenylpyrrolidine-1-carboxamide] | 7.57
22 | O=C(NC[C@H](O)CN1CCc2ccccc2C1)N1CC[C@H](c2ccccc2)C1 [Example 1CJ, (R)-N-((S)-3-(3,4-dihydroisoquinolin-2(1H)-yl)-2-hydroxypropyl)-3-phenylpyrrolidine-1-carboxamide] | 7.24
23 | O=C(NCC(O)CN1CCc2ccccc2C1)N1CCCC(O)C1 (stereo not shown) [Example 1CK, N-(3-(3,4-dihydroisoquinolin-2(1H)-yl)-2-hydroxypropyl)-3-hydroxypiperidine-1-carboxamide] | 6.48
24 | CN1CCCN(C(=O)NCC(O)CN2CCc3ccccc3C2)CC1 (stereo not shown) [Example 1CL, N-(3-(3,4-dihydroisoquinolin-2(1H)-yl)-2-hydroxypropyl)-4-methyl-1,4-diazepane-1-carboxamide] | 6.36
25 | CC(=O)N1CCCN(C(=O)NCC(O)CN2CCc3ccccc3C2)CC1 (stereo not shown) [Example 1CM, 4-acetyl-N-(3-(3,4-dihydroisoquinolin-2(1H)-yl)-2-hydroxypropyl)-1,4-diazepane-1-carboxamide] | 6.90
26 | O=C(NCC(O)CN1CCc2ccccc2C1)N1CCCC(c2ccccc2)CC1 (stereo not shown) [Example 1CN, N-(3-(3,4-dihydroisoquinolin-2(1H)-yl)-2-hydroxypropyl)-4-phenylazepane-1-carboxamide] | 5.96
27 | O=C(NCC(O)CN1CCc2ccccc2C1)N1CCCCC(c2ccccc2)C1 (stereo not shown) [Example 1CO, N-(3-(3,4-dihydroisoquinolin-2(1H)-yl)-2-hydroxypropyl)-3-phenylazepane-1-carboxamide] | 7.77
28 | O=C(NCC(O)CN1CCc2ccccc2C1)N1CCN(Cc2ccccc2)CC1 (stereo not shown) [Example 1D, 4-benzyl-N-[2-hydroxy-3-(1,2,3,4-tetrahydroisoquinolin-2-yl)propyl]piperazine-1-carboxamide] | 5.73
29 | O=C(NCC(O)CN1CCc2ccccc2C1)N1CCCC(c2ccccc2)C1 (stereo not shown) [Example 1E, N-[2-hydroxy-3-(1,2,3,4-tetrahydroisoquinolin-2-yl)propyl]-3-phenylpiperidine-1-carboxamide] | 8.10
30 | O=C(NCC(O)CN1CCc2ccccc2C1)N1CCC(c2ccccc2)CC1 (stereo not shown) [Example 1F, N-[2-hydroxy-3-(1,2,3,4-tetrahydroisoquinolin-2-yl)propyl]-4-phenylpiperidine-1-carboxamide] | 6.34
31 | O=C(NCC(O)CN1CCc2ccccc2C1)N1CCC(Oc2ccccc2)CC1 (stereo not shown) [Example 1G, N-[2-hydroxy-3-(1,2,3,4-tetrahydroisoquinolin-2-yl)propyl]-4-phenoxypiperidine-1-carboxamide] | 6.25
32 | O=C(NCC(O)CN1CCc2ccccc2C1)N1CCCC(Oc2ccccc2)C1 (stereo not shown) [Example 1H, N-[2-hydroxy-3-(1,2,3,4-tetrahydroisoquinolin-2-yl)propyl]-3-phenoxypiperidine-1-carboxamide] | 6.57
33 | O=C(NCC(O)CN1CCc2ccccc2C1)N1CCc2ccccc2C1 (stereo not shown) [Example 1I, N-[2-hydroxy-3-(1,2,3,4-tetrahydroisoquinolin-2-yl)propyl]-1,2,3,4-tetrahydroisoquinoline-2-carboxamide] | 6.68
34 | O=C(NCC(O)CN1CCc2ccccc2C1)N1CCCCc2ccccc21 (stereo not shown) [Example 1J, N-[2-hydroxy-3-(1,2,3,4-tetrahydroisoquinolin-2-yl)propyl]-2,3,4,5-tetrahydro-1H-1-benzazepine-1-carboxamide] | 6.49
35 | O=C(NCC(O)CN1CCc2ccccc2C1)N1CCCCC1 (stereo not shown) [Example 1L, N-[2-hydroxy-3-(1,2,3,4-tetrahydroisoquinolin-2-yl)propyl]piperidine-1-carboxamide] | 5.78
36 | O=C(NCC(O)CN1CCc2ccccc2C1)N1CCCC1 (stereo not shown) [Example 1M, N-[2-hydroxy-3-(1,2,3,4-tetrahydroisoquinolin-2-yl)propyl]pyrrolidine-1-carboxamide] | 5.16
37 | O=C(NCC(O)CN1CCc2ccccc2C1)N1CCCCCC1 (stereo not shown) [Example 1N, N-[2-hydroxy-3-(1,2,3,4-tetrahydroisoquinolin-2-yl)propyl]azepane-1-carboxamide] | 5.62
